In ChEMBL document CHEMBL1201862, “PubChem BioAssay data set” (2004):
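Where inhibition never reached the appropriate level, the endpoint shown equals the highest concentration tested. Otherwise, values were interpolated linearly from a five-concentration, 48-hour dose response in 96-well plates. GI50 = concentration required for 50% inhibition of growth.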 Active and inactive are the calls of the source. Rule as the data show it: active = GI50 up to about 1.1 µM and inactive = higher.

How the values were obtained:
Test in all cases: NCI anticancer screen, dose series, 48 h
MCF7 = test system: MCF7
M14 = test system: M14
HOP-92 = test system: HOP-92
MOLT-4 = test system: MOLT-4
SN12C = test system: SN12C
HCT-116 = test system: HCT-116
UACC-257 = test system: UACC-257
UACC-62 = test system: UACC-62
HOP-62 = test system: HOP-62
KM12 = test system: KM12
SNB-19 = test system: SNB-19
NCI/ADR-RES = test system: NCI/ADR-RES
SK-MEL-2 = test system: SK-MEL-2
NCI-H23 = test system: NCI-H23
SF-295 = test system: SF-295
786-0 = test system: 786-0
EKVX = test system: EKVX
HCC 2998 = test system: HCC 2998
NCI-H522 = test system: NCI-H522
DU-145 = test system: DU-145

Compound | GI50 (MCF7) | GI50 (M14) | GI50 (HOP-92) | GI50 (MOLT-4) | GI50 (SN12C) | GI50 (HCT-116) | GI50 (UACC-257) | GI50 (UACC-62) | GI50 (HOP-62) | GI50 (KM12) | GI50 (SNB-19) | GI50 (NCI/ADR-RES) | GI50 (SK-MEL-2) | GI50 (NCI-H23) | GI50 (SF-295) | GI50 (786-0) | GI50 (EKVX) | GI50 (HCC 2998) | GI50 (NCI-H522) | GI50 (DU-145)
CC(C)N(/C(F)=N\C(=O)Nc1ccccc1C(F)(F)F)C(C)C | 35.6 µM (inactive) | 47.6 µM (inactive) | 22.5 µM (inactive) | > 10 µM (inactive) | 37.2 µM (inactive) | 36.6 µM (inactive) | 55.1 µM (inactive) | > 10 µM (inactive) | 75 µM (inactive) | 42.5 µM (inactive) | 49.9 µM (inactive) | 41.5 µM (inactive) | 22.8 µM (inactive) | 67 µM (inactive) | 45.6 µM (inactive) | 69 µM (inactive) | 31.8 µM (inactive) | 31.3 µM (inactive) |  | 
COc1ccc2c(c1)CC[C@@H]1C2CC[C@]2(C)C(=O)NC(=O)CC12 (stereo not given in full) |  | > 100 µM (inactive) | > 100 µM (inactive) | 61.8 µM (inactive) | > 100 µM (inactive) | > 100 µM (inactive) | > 100 µM (inactive) | > 100 µM (inactive) | > 100 µM (inactive) | > 100 µM (inactive) | > 100 µM (inactive) |  | > 100 µM (inactive) | > 100 µM (inactive) | > 100 µM (inactive) | > 100 µM (inactive) | 84.1 µM (inactive) | 53.3 µM (inactive) | > 100 µM (inactive) | 
CC(=O)ON(C(C)=O)c1ccc(-c2nc3ccccc3s2)cc1C |  | 59 µM (inactive) | 43.6 µM (inactive) | 66.7 µM (inactive) | 31 µM (inactive) | 23.4 µM (inactive) | 50 µM (inactive) | 44.3 µM (inactive) | 21.2 µM (inactive) | 47.4 µM (inactive) | 50.1 µM (inactive) | 21.3 µM (inactive) | > 100 µM (inactive) | 52.7 µM (inactive) | 31.6 µM (inactive) | 60 µM (inactive) | 2.77 µM (inactive) | 67.6 µM (inactive) | 38.5 µM (inactive) | 37.7 µM (inactive)
CCOc1ccc(NC(=O)CCc2nnc(SC)o2)cc1 |  | > 100 µM (inactive) | 82 µM (inactive) | > 100 µM (inactive) | > 100 µM (inactive) | > 100 µM (inactive) | > 100 µM (inactive) | > 100 µM (inactive) | > 100 µM (inactive) | > 100 µM (inactive) | > 100 µM (inactive) |  | > 100 µM (inactive) | > 100 µM (inactive) | > 100 µM (inactive) | > 100 µM (inactive) | > 100 µM (inactive) | > 100 µM (inactive) | > 100 µM (inactive) | 
COc1ccccc1NC(=O)C1=C(C)NC(C)=C(C(=O)Nc2ccccc2OC)C1c1ccco1 | 3.59 µM (inactive) | 4.71 µM (inactive) | 3.98 µM (inactive) | 3.87 µM (inactive) | 13.4 µM (inactive) | 4.36 µM (inactive) | 9.55 µM (inactive) | 3.12 µM (inactive) | 6.28 µM (inactive) | 3.98 µM (inactive) | 7.71 µM (inactive) |  | 3.64 µM (inactive) | 6.4 µM (inactive) | 4.31 µM (inactive) | 4.45 µM (inactive) | 10.9 µM (inactive) | 8.79 µM (inactive) | 2.66 µM (inactive) | 21.4 µM (inactive)
N=C(N)N/N=C/c1c(-c2ccc(Cl)c(Cl)c2Cl)nc2sccn12 | 2.05 µM (inactive) | 1.57 µM (inactive) | 1.44 µM (inactive) |  | 1.5 µM (inactive) | 1.55 µM (inactive) | 1.65 µM (inactive) | 1.44 µM (inactive) | 1.69 µM (inactive) | 1.58 µM (inactive) | 1.33 µM (inactive) |  | 1.74 µM (inactive) | 1.29 µM (inactive) | 1.79 µM (inactive) | 1.41 µM (inactive) | 1.5 µM (inactive) |  | 1.23 µM (inactive) | 1.7 µM (inactive)
O=C1CCC2(c3ccccc3)Nc3ccncc3N12 (stereo not given) | > 10 µM (inactive) | > 10 µM (inactive) | > 10 µM (inactive) | > 10 µM (inactive) | > 10 µM (inactive) | > 10 µM (inactive) | > 10 µM (inactive) | > 10 µM (inactive) |  | > 10 µM (inactive) | > 10 µM (inactive) | > 10 µM (inactive) | > 10 µM (inactive) | > 10 µM (inactive) | > 10 µM (inactive) | > 10 µM (inactive) | > 10 µM (inactive) |  | > 10 µM (inactive) | > 10 µM (inactive)
CC(=O)n1cc(OP(=O)(Oc2ccccc2)Oc2ccccc2)c2ccccc21 | 10.1 µM (inactive) | 18.9 µM (inactive) |  | 16.9 µM (inactive) | 29.2 µM (inactive) | 21.4 µM (inactive) | 25.7 µM (inactive) | 16.9 µM (inactive) |  | 35.6 µM (inactive) | 58.9 µM (inactive) | 16.7 µM (inactive) | 22.2 µM (inactive) | 33.3 µM (inactive) | 38.9 µM (inactive) | 32.1 µM (inactive) |  |  |  | 72.3 µM (inactive)
O=C(CC(C(=O)c1ccsc1)c1cccs1)c1ccccc1 (stereo not given) | 45.1 µM (inactive) | 69.2 µM (inactive) | > 100 µM (inactive) | 36.2 µM (inactive) | > 100 µM (inactive) | 71.4 µM (inactive) | > 100 µM (inactive) | 49.2 µM (inactive) | > 100 µM (inactive) | 59 µM (inactive) |  |  |  | 29.7 µM (inactive) | 98.9 µM (inactive) | > 100 µM (inactive) | > 100 µM (inactive) | > 100 µM (inactive) | 70.1 µM (inactive) | 54.6 µM (inactive)
COC(=O)[C@@]12OC[C@]34C([C@@H](O)C1O)[C@@]1(C)CC(=O)C(OC(=O)/C=C(/c5ccccc5)C(F)(F)F)=C(C)C1C[C@H]3OC(=O)[C@H](O)[C@H]42 (stereo not given in full) |  | 8.77 µM (inactive) | 5.86 µM (inactive) | 2.14 µM (inactive) | 7.93 µM (inactive) | 8.63 µM (inactive) | 8.73 µM (inactive) | 2.36 µM (inactive) | 12.4 µM (inactive) | 14.4 µM (inactive) | 4.71 µM (inactive) |  | 7.96 µM (inactive) | 4.56 µM (inactive) | 7.93 µM (inactive) | 9.04 µM (inactive) | 38.6 µM (inactive) | 3.44 µM (inactive) | 6.35 µM (inactive) | 
c1cncc(CNCc2cccnc2)c1 | > 100 µM (inactive) | > 100 µM (inactive) | > 100 µM (inactive) | > 100 µM (inactive) | > 100 µM (inactive) | > 100 µM (inactive) | > 100 µM (inactive) | > 100 µM (inactive) | > 100 µM (inactive) | > 100 µM (inactive) | > 100 µM (inactive) | > 100 µM (inactive) | > 100 µM (inactive) | > 100 µM (inactive) | > 100 µM (inactive) | > 100 µM (inactive) | > 100 µM (inactive) |  | > 100 µM (inactive) | > 100 µM (inactive)
CCCCCCCSCC1C(=O)C23C(O)C1CCC2C12COC3(O)C(O)C1C(C)(C)CCC2O (stereo not given) |  | 12.2 µM (inactive) | 13.9 µM (inactive) | 3.3 µM (inactive) | 8.41 µM (inactive) | 5.5 µM (inactive) | 7.16 µM (inactive) | 11.5 µM (inactive) | 20.3 µM (inactive) | 10.6 µM (inactive) | 18.9 µM (inactive) |  | 14.8 µM (inactive) | 16.3 µM (inactive) | 17.9 µM (inactive) | 13.8 µM (inactive) | 17.7 µM (inactive) | 15 µM (inactive) | 1.4 µM (inactive) | 
S=c1sc2c(S)nc(S)nc2n1-c1ccccc1 |  | > 100 µM (inactive) | 42.4 µM (inactive) | > 100 µM (inactive) | > 100 µM (inactive) | > 100 µM (inactive) | > 100 µM (inactive) | > 100 µM (inactive) | > 100 µM (inactive) | 54.5 µM (inactive) | > 100 µM (inactive) |  | > 100 µM (inactive) | > 100 µM (inactive) | > 100 µM (inactive) | > 100 µM (inactive) | > 100 µM (inactive) | > 100 µM (inactive) | 41.5 µM (inactive) | 
Cc1nc(C)c(C(=O)Nc2cccc3c2C(=O)NC3=O)cc1C(=O)Nc1cccc2c1C(=O)NC2=O |  | > 100 µM (inactive) | > 100 µM (inactive) | > 100 µM (inactive) | > 100 µM (inactive) | > 100 µM (inactive) | > 100 µM (inactive) | > 100 µM (inactive) | > 100 µM (inactive) | > 100 µM (inactive) | > 100 µM (inactive) |  | > 100 µM (inactive) | > 100 µM (inactive) | > 100 µM (inactive) | > 100 µM (inactive) | > 100 µM (inactive) | > 100 µM (inactive) | > 100 µM (inactive) | 
COc1ccc2c(c1)N=C1CSC(c3ccccc3Cl)N1C2 (stereo not given) | 12.2 µM (inactive) | 13 µM (inactive) | 18.3 µM (inactive) | 0.659 µM (active) | 11.1 µM (inactive) | 3.92 µM (inactive) | 16.3 µM (inactive) | 4.08 µM (inactive) | 14.5 µM (inactive) | 4.6 µM (inactive) | 19 µM (inactive) | 21.6 µM (inactive) | 15.8 µM (inactive) | 17.9 µM (inactive) | 13.3 µM (inactive) | 11.5 µM (inactive) | 7.98 µM (inactive) | 5.07 µM (inactive) | 15.1 µM (inactive) | 
Cc1cc(/C=C/c2cc[n+](C)c3ccccc23)c(O)c2ncccc12 |  | 1.44 µM (inactive) | 2.99 µM (inactive) | 0.646 µM (active) | 1.09 µM (active) | 0.966 µM (active) | 2.97 µM (inactive) | 1.99 µM (inactive) | 1.87 µM (inactive) | 2.19 µM (inactive) | 4.55 µM (inactive) |  | 2.67 µM (inactive) | 1.7 µM (inactive) | 0.991 µM (active) | 0.916 µM (active) | 3.28 µM (inactive) | 1.06 µM (active) | 1.77 µM (inactive) | 
